From patent US20110152086A1, “Herbicidal Compositions Comprising Flufenacet” (BAYER CROPSCIENCE AG, priority 2009, published 2011)
Like-named read-outs stand apart in the source and are kept apart here.

What was measured:
PAPRH = experiment: Greenhouse trial, PE application on sensitive and resistant biotypes (Table 5); type: in vivo; details: for activity, PAPRH resistant: resistant biotype; for activity, PAPRH resistant / activity, PAPRH Sensitive: (A) 90, (B) 1200, iodosulfuron 10 g of AS/ha; for activity, PAPRH Sensitive: sensitive biotype
Description: (§1) In the standard design of the test, seeds of various broad-leaved weed and weed grass biotypes (origins) were sown in a 8-13 cm diameter pot filled with natural soil of a standard field soil (loamy silt; non-sterile) and covered with a covering soil layer of about 1 cm. The pots were then cultivated in a greenhouse (12-16 h of light, temperature day 20-22° C., night 15-18° C.) until the time of application. The pots were treated on a laboratory track sprayer with spray liquors comprising the compositions according to the invention, mixtures of the prior art or components used individually. Application of the active compounds or active compound combinations formulated as WG, WP, EC or otherwise was carried out at the appropriate growth stages of the plants. The application rate for the spray application was 100-600 l of water/ha. After the treatment, the plants were returned to the greenhouses.
(§2) About 3 weeks after the application, the soil action or/and foliar action was assessed visually according to a scale of 0-100% in comparison to an untreated comparative group: 0%=no noticeable effect compared to the untreated comparative group; 100%=full effect compared to the untreated comparative group.
(§3) (notes: the term “seeds” also includes vegetative propagation forms such as, for example, rhizome pieces; abbreviations used: h light=hours of illumination, g of AS/ha=gram of active substance per hectare, l/ha=liter per hectare, S=sensitive, R=resistant) • 1. Pre-emergence action against weeds: seeds of various broad-leaved weed and weed grass biotypes (origins) were sown in a 8-13 cm diameter pot filled with natural soil of a standard field soil (loamy silt; non-sterile) and covered with a covering soil layer of about 1 cm. The pots were then cultivated in a greenhouse (12-16 h of light, temperature day 20-22° C., night 15-18° C.) until the time of application. The pots were treated at the BBCH stage 00-10 of the seeds/plants on a laboratory track sprayer with spray liquors comprising the compositions according to the invention, mixtures or components used individually, as WG, WP, EC or other formulations. The application rate for the spray application was 100-600 l of water/ha. After the treatment, the plants were returned to the greenhouses and, when required, treated with fertilizer and watered. • 2. Post-emergence action against weeds: seeds of various broad-leaved weed and weed grass biotypes (origins) were sown in a 8-13 cm diameter pot filled with natural soil of a standard field soil (loamy silt; non-sterile) and covered with a covering soil layer of about 1 cm. The pots were then cultivated in a greenhouse (12-16 h of light, temperature day 20-22° C., night 15-18° C.) until the time of application. The pots were treated at various BBCH stages between 11-25 of the seeds/plants, i.e. generally between two to three weeks after the start of the cultivation, on a laboratory track sprayer with spray liquors comprising the compositions according to the invention, mixtures or components used individually, as WG, WP, EC or other formulations. The application rate for the spray application was 100-600 l of water/ha. After the treatment, the plants were returned to the greenhouses and, when required, treated with fertilizer and watered. • 3. Pre-emergence action against weeds with and without incorporation of active compound: seeds of various broad-leaved weed and weed grass biotypes (origins) were sown in a 8-13 cm diameter pot filled with natural soil of a standard field soil (loamy silt; non-sterile). […]

LOLSS = experiment: as above; type: in vivo, Lolium species; details: for activity, LOLSS resistant: resistant biotype; for activity, LOLSS resistant / activity, LOLSS Sensitive: (A) 90, (B) 1200, iodosulfuron 10 g of AS/ha; for activity, LOLSS Sensitive: sensitive biotype
Description: as §1, §2, §3

POOAN = experiment: Greenhouse trial, PE application vs application 7 days prior to sowing (Table 3); type: in vivo, Poa annua; details: (A) 90, (B) 1200 g of AS/ha
Description: as §1, §2
(§4) (notes: the term “seeds” also includes vegetative propagation forms such as, for example, rhizome pieces; abbreviations used: h light=hours of illumination, g of AS/ha=gram of active substance per hectare, l/ha=liter per hectare, S=sensitive, R=resistant) • 1. Pre-emergence action against weeds: seeds of various broad-leaved weed and weed grass biotypes (origins) were sown in a 8-13 cm diameter pot filled with natural soil of a standard field soil (loamy silt; non-sterile) and covered with a covering soil layer of about 1 cm. The pots were then cultivated in a greenhouse (12-16 h of light, temperature day 20-22° C., night 15-18° C.) until the time of application. The pots were treated at the BBCH stage 00-10 of the seeds/plants on a laboratory track sprayer with spray liquors comprising the compositions according to the invention, mixtures or components used individually, as WG, WP, EC or other formulations. The application rate for the spray application was 100-600 l of water/ha. After the treatment, the plants were returned to the greenhouses and, when required, treated with fertilizer and watered. • 2. Post-emergence action against weeds: seeds of various broad-leaved weed and weed grass biotypes (origins) were sown in a 8-13 cm diameter pot filled with natural soil of a standard field soil (loamy silt; non-sterile) and covered with a covering soil layer of about 1 cm. The pots were then cultivated in a greenhouse (12-16 h of light, temperature day 20-22° C., night 15-18° C.) until the time of application. […]

STEME [1] = experiment: Greenhouse trial, PO application (Table 2); type: in vivo, Stellaria media; details: (A) 120, (B) 1600 g of AS/ha
Description: as §1
(§5) About 3 weeks after the application, the soil action or/and foliar action was assessed visually according to a scale of 0-100% in comparison to an untreated comparative group: 0%=no noticeable effect compared to the untreated comparative group; 100%=full effect compared to the untreated comparative group. […]

LOLPE [2] = experiment: Greenhouse trial, PE application vs application 7 days prior to sowing (Table 3); type: in vivo, Lolium perenne; details: (A) 90, (B) 1200 g of AS/ha
Description: as §1, §2, §4

TRZAS [3] = experiment: Greenhouse trial, PE application with different soil types, crop (Table 4); details: Triticum aestivum (summer wheat), in vivo
Description: as §1, §2, §3

HORVS = experiment: Greenhouse trial, selective PO application (Table 2); details: Hordeum vulgare (summer barley), in vivo
Description: as §1, §5

STEME [4] = experiment: Greenhouse trial, different sowing depths (Table 6); type: in vivo, Stellaria media; details: PE application, (A) 90, (B) 1200 g of AS/ha; for activity, STEME 5 mm: sowing depth 5 mm; for activity, STEME 20 mm: sowing depth 20 mm
Description: as §1, §2, §4

TRZAW = experiment: Greenhouse trial, PE application, crop (Table 3); details: Triticum aestivum (winter wheat), in vivo
Description: as §1, §5

APESV = experiment: Greenhouse trial, different sowing depths (Table 6); type: in vivo; details: PE application, (A) 90, (B) 1200 g of AS/ha; for activity, APESV 5 mm: sowing depth 5 mm; for activity, APESV 20 mm: sowing depth 20 mm
Description: as §1, §2, §4

MATCH = experiment: as above; type: in vivo, Matricaria chamomilla; details: head prints PO application, (A) 90, (B) 1200 g of AS/ha; for activity, MATCH 5 mm: sowing depth 5 mm; for activity, MATCH 20 mm: sowing depth 20 mm
Description: as §1, §2, §4

VIOAR [5] = experiment: Greenhouse trial, PO application (Table 2); type: in vivo, Viola arvensis; details: (A) 120, (B) 1600 g of AS/ha
Description: as §1, §5

LOLPE [6] = experiment: Greenhouse trial, PO application (Table 2); type: in vivo, Lolium perenne; details: (A) 120, (B) 1600 g of AS/ha
Description: as §1, §5

LOLPE [7] = experiment: Greenhouse trial, PE application with different soil types (Table 4); type: in vivo, Lolium perenne; details: (A) 120, (B) 1200 g of AS/ha
Description: as §1, §2, §3

VIOAR [8] = experiment: Greenhouse trial, PE soil application vs incorporation into the soil (Table 1a); type: in vivo, Viola arvensis; details: (A) 90, (B) 1200 g of AS/ha
Description: as §1, §2, §4

AVEFA = experiment: Greenhouse trial, PE application vs application 7 days prior to sowing (Table 3); type: in vivo, Avena fatua; details: (A) 90, (B) 1200 g of AS/ha
Description: as §1, §2, §4

TRZAS [9] = experiment: Greenhouse trial, application 7 days prior to sowing, crop (Table 3); details: Triticum aestivum (summer wheat), in vivo
Description: as §1, §5

VIOAR [10] = experiment: Greenhouse trial, different sowing depths (Table 6); type: in vivo, Viola arvensis; details: head prints PO application, (A) 90, (B) 1200 g of AS/ha; for activity, VIOAR 5 mm: sowing depth 5 mm; for activity, VIOAR 20 mm: sowing depth 20 mm
Description: as §1, §2, §4

[11] = Application 7 days prior to sowing

COc1nc(C)nc(NC(=O)NS(=O)(=O)c2cc(I)ccc2C(=O)O)n1 [(C)^1 iodosulfuron]
Difference resistant to sensitive Δ^D, PAPRH (PAPRH): Δ^D −40% | activity, PAPRH resistant (PAPRH): 70% | activity, PAPRH Sensitive (PAPRH): 100% | Difference resistant to sensitive Δ^D, LOLSS (LOLSS): Δ^D −48% | Difference resistant to sensitive Δ^D, LOLSS (LOLSS; listed as standard product (C)): −48% | activity, LOLSS resistant (LOLSS): 50% | activity, LOLSS Sensitive (LOLSS): 98%

CC(C)N(C(=O)COc1nnc(C(F)(F)F)s1)c1ccc(F)cc1 [(A) flufenacet, N-(4-fluorophenyl)-N-(1-methylethyl)-2-[[5-(trifluoromethyl)-1,3,4-thiadiazol-2-yl]oxy]acetamide]
activity, POOAN (POOAN; [11]): 95% | activity, POOAN (POOAN; PE application): 65% | activity, STEME (STEME [1]): 30% | activity, LOLPE (LOLPE [2]; [11]): 80% | activity, LOLPE (LOLPE [2]; PE application): 90% | Difference of the soil types Δ^D = A: activity IU/EC73 soil − B: activity IU soil, TRZAS (TRZAS [3]): Δ^D −33% | activity, TRZAS IU soil (TRZAS [3]): 33% | activity, TRZAS IU/EC73 soil (TRZAS [3]): 0% | activity, HORVS (HORVS): 40% | Difference resistant to sensitive Δ^D, PAPRH (PAPRH): Δ^D −15% | activity, PAPRH resistant (PAPRH): 45% | activity, PAPRH Sensitive (PAPRH): 60% | Difference resistant to sensitive Δ^D, LOLSS (LOLSS): Δ^D −75% | activity, LOLSS resistant (LOLSS): 10% | activity, LOLSS Sensitive (LOLSS): 85% | activity, STEME 5 mm (STEME [4]): 0% | activity, STEME 20 mm (STEME [4]): 10% | activity, TRZAW (TRZAW): 30% | activity, APESV 5 mm (APESV): 65% | activity, APESV 20 mm (APESV): 70% | activity, MATCH 5 mm (MATCH): 30% | activity, MATCH 20 mm (MATCH): 30% | activity, VIOAR (VIOAR [5]): 40% | activity, LOLPE (LOLPE [6]): 65% | Difference of the soil types Δ^D = A: activity IU/EC73 soil − B: activity IU soil, LOLPE (LOLPE [7]): Δ^D −22% | activity, LOLPE IU soil (LOLPE [7]): 97% | activity, LOLPE IU/EC73 soil (LOLPE [7]): 75% | activity, VIOAR (VIOAR [8]; Incorporation): 0% | activity, VIOAR (VIOAR [8]; PE application): 0% | activity, AVEFA (AVEFA; [11]): 70% | activity, AVEFA (AVEFA; PE application): 80% | activity, TRZAS (TRZAS [9]): 60% | activity, VIOAR 5 mm (VIOAR [10]): 50% | activity, VIOAR 20 mm (VIOAR [10]): 10%

CCCN(CCC)C(=O)SCc1ccccc1 [(B) prosulfocarb, S-(phenylmethyl) dipropylcarbamothioate]
activity, POOAN (POOAN; [11]): 20% | activity, POOAN (POOAN; PE application): 35% | activity, STEME (STEME [1]): 30% | activity, LOLPE (LOLPE [2]; [11]): 0% | activity, LOLPE (LOLPE [2]; PE application): 80% | Difference of the soil types Δ^D = A: activity IU/EC73 soil − B: activity IU soil, TRZAS (TRZAS [3]): Δ^D −5% | activity, TRZAS IU soil (TRZAS [3]): 5% | activity, TRZAS IU/EC73 soil (TRZAS [3]): 0% | activity, HORVS (HORVS): 30% | Difference resistant to sensitive Δ^D, PAPRH (PAPRH): Δ^D +20% | activity, PAPRH resistant (PAPRH): 70% | activity, PAPRH Sensitive (PAPRH): 50% | Difference resistant to sensitive Δ^D, LOLSS (LOLSS): Δ^D −20% | activity, LOLSS resistant (LOLSS): 65% | activity, LOLSS Sensitive (LOLSS): 85% | activity, STEME 5 mm (STEME [4]): 60% | activity, STEME 20 mm (STEME [4]): 50% | activity, TRZAW (TRZAW): 35% | activity, APESV 5 mm (APESV): 50% | activity, APESV 20 mm (APESV): 20% | activity, MATCH 5 mm (MATCH): 0% | activity, MATCH 20 mm (MATCH): 0% | activity, VIOAR (VIOAR [5]): 50% | activity, LOLPE (LOLPE [6]): 60% | Difference of the soil types Δ^D = A: activity IU/EC73 soil − B: activity IU soil, LOLPE (LOLPE [7]): Δ^D −33% | activity, LOLPE IU soil (LOLPE [7]): 33% | activity, LOLPE IU/EC73 soil (LOLPE [7]): 0% | activity, VIOAR (VIOAR [8]; Incorporation): 0% | activity, VIOAR (VIOAR [8]; PE application): 20% | activity, AVEFA (AVEFA; [11]): 10% | activity, AVEFA (AVEFA; PE application): 80% | activity, TRZAS (TRZAS [9]): 10% | activity, VIOAR 5 mm (VIOAR [10]): 60% | activity, VIOAR 20 mm (VIOAR [10]): 20%
